Species: Rattus norvegicus
Experiment: DrugMatrix - Regimen: Daily Repeat
Type: toxicity, organism-based, Sprague-Dawley
Set-up: regimen Daily Repeat, gender Male, age 6-8 weeks
Settings: in vivo, ip, 50 mg/kg, route intraperitoneal, dose level High, […]; for ABSOLUTE BASOPHIL / ABSOLUTE EOSINOPHIL / ABSOLUTE LYMPHOCYTE / ABSOLUTE MONOCYTE / ABSOLUTE SEGMENTED NEUTROPHIL / BASOPHIL / EOSINOPHIL / ERYTHROCYTE COUNT / HEMATOCRIT / HEMOGLOBIN / LEUKOCYTE COUNT / LYMPHOCYTE / MEAN CORPUSCULAR HEMOGLOBIN / MEAN CORPUSCULAR HEMOGLOBIN CONCENTRATION / MEAN CORPUSCULAR VOLUME / MONOCYTE / NEUTROPHIL / NUCLEATED RED BLOOD CELLS / PLATELET COUNT: tissue Blood; for ALANINE AMINOTRANSFERASE / ALBUMIN / ALKALINE PHOSPHATASE / ASPARTATE AMINOTRANSFERASE / BLOOD UREA NITROGEN / CARBON DIOXIDE / CHLORIDE / CHOLESTEROL / CREATININE / GLUCOSE / LACTATE DEHYDROGENASE / LIPASE / PHOSPHORUS / POTASSIUM / SODIUM / TOTAL BILIRUBIN / TOTAL PROTEIN / URIC ACID: tissue Plasma

Q: How did the “ABSOLUTE BASOPHIL” value (72 h, time 3 day) turn out when `ClC(Cl)=C(Cl)C(Cl)=C(Cl)Cl` [HEXACHLOROBUTADIENE] was run?
A: 0 CELLS/uL

Q: What about the “ABSOLUTE EOSINOPHIL” value (72 h, time 3 day) of the same compound?
A: 265.33 CELLS/uL

Q: And the “ABSOLUTE LYMPHOCYTE” value (72 h, time 3 day)?
A: 14659.33 CELLS/uL

Q: And the “ABSOLUTE MONOCYTE” value (72 h, time 3 day)?
A: 513.33 CELLS/uL

Q: What about the “ABSOLUTE SEGMENTED NEUTROPHIL” value (72 h, time 3 day) of the same compound?
A: 2862 CELLS/uL

Q: And the BASOPHIL (72 h, time 3 day)?
A: 0%

Q: What about the EOSINOPHIL (72 h, time 3 day) of the same compound?
A: 1.33%

Q: What about the “ERYTHROCYTE COUNT” value (72 h, time 3 day) of the same compound?
A: 6.15 x10E6/uL

Q: And the HEMATOCRIT (72 h, time 3 day)?
A: 36.87%

Q: What about the HEMOGLOBIN (72 h, time 3 day) of the same compound?
A: 13.3 G/DL

Q: And the “LEUKOCYTE COUNT” value (72 h, time 3 day)?
A: 18.3 x10E3/uL

Q: And the LYMPHOCYTE (72 h, time 3 day)?
A: 80.67%

Q: And the “MEAN CORPUSCULAR HEMOGLOBIN” value (72 h, time 3 day)?
A: 21.63 pg

Q: What about the “MEAN CORPUSCULAR HEMOGLOBIN CONCENTRATION” value (72 h, time 3 day) of the same compound?
A: 36.1 G/DL

Q: What about the “MEAN CORPUSCULAR VOLUME” value (72 h, time 3 day) of the same compound?
A: 60 fL

Q: What about the MONOCYTE (72 h, time 3 day) of the same compound?
A: 2.67%

Q: And the NEUTROPHIL (72 h, time 3 day)?
A: 15.33%

Q: What about the “NUCLEATED RED BLOOD CELLS” value (72 h, time 3 day) of the same compound?
A: 0 /100WBC

Q: And the “PLATELET COUNT” value (72 h, time 3 day)?
A: 1031 x10E3/uL

Q: What about the “ALANINE AMINOTRANSFERASE” value (72 h, time 3 day) of the same compound?
A: 36.33 u/L

Q: And the ALBUMIN (72 h, time 3 day)?
A: 4.23 G/DL

Q: And the “ALKALINE PHOSPHATASE” value (72 h, time 3 day)?
A: 328.33 u/L

Q: What about the “ASPARTATE AMINOTRANSFERASE” value (72 h, time 3 day) of the same compound?
A: 101 u/L

Q: What about the “BLOOD UREA NITROGEN” value (72 h, time 3 day) of the same compound?
A: 11.67 mg/dL

Q: And the “CARBON DIOXIDE” value (72 h, time 3 day)?
A: 30.33 mmol/L

Q: What about the CHLORIDE (72 h, time 3 day) of the same compound?
A: 102 MEQ/L

Q: And the CHOLESTEROL (72 h, time 3 day)?
A: 84.67 mg/dL

Q: And the CREATININE (72 h, time 3 day)?
A: 0.16 mg/dL

Q: And the GLUCOSE (72 h, time 3 day)?
A: 173 mg/dL

Q: What about the “LACTATE DEHYDROGENASE” value (72 h, time 3 day) of the same compound?
A: 166 u/L

Q: And the LIPASE (72 h, time 3 day)?
A: 9.67 u/L

Q: And the PHOSPHORUS (72 h, time 3 day)?
A: 11.6 mg/dL

Q: And the POTASSIUM (72 h, time 3 day)?
A: 6.25 MEQ/L

Q: What about the SODIUM (72 h, time 3 day) of the same compound?
A: 147.3 MEQ/L

Q: And the “TOTAL BILIRUBIN” value (72 h, time 3 day)?
A: 0.13 mg/dL

Q: And the “TOTAL PROTEIN” value (72 h, time 3 day)?
A: 6.3 G/DL

Q: What about the “URIC ACID” value (72 h, time 3 day) of the same compound?
A: 2.6 mg/dL

Q: What about the “ABSOLUTE BASOPHIL” value (120 h, time 5 day) of the same compound?
A: 0 CELLS/uL

Q: And the “ABSOLUTE EOSINOPHIL” value (120 h, time 5 day)?
A: 230 CELLS/uL

Q: And the “ABSOLUTE LYMPHOCYTE” value (120 h, time 5 day)?
A: 9645 CELLS/uL

Q: What about the “ABSOLUTE MONOCYTE” value (120 h, time 5 day) of the same compound?
A: 302 CELLS/uL

Q: And the “ABSOLUTE SEGMENTED NEUTROPHIL” value (120 h, time 5 day)?
A: 1323 CELLS/uL

Q: What about the BASOPHIL (120 h, time 5 day) of the same compound?
A: 0%

Q: And the EOSINOPHIL (120 h, time 5 day)?
A: 2%

Q: What about the “ERYTHROCYTE COUNT” value (120 h, time 5 day) of the same compound?
A: 5.76 x10E6/uL

Q: What about the HEMATOCRIT (120 h, time 5 day) of the same compound?
A: 36.65%

Q: What about the HEMOGLOBIN (120 h, time 5 day) of the same compound?
A: 13.3 G/DL

Q: What about the “LEUKOCYTE COUNT” value (120 h, time 5 day) of the same compound?
A: 11.5 x10E3/uL

Q: What about the LYMPHOCYTE (120 h, time 5 day) of the same compound?
A: 84.5%

Q: What about the “MEAN CORPUSCULAR HEMOGLOBIN” value (120 h, time 5 day) of the same compound?
A: 23.1 pg

Q: What about the “MEAN CORPUSCULAR HEMOGLOBIN CONCENTRATION” value (120 h, time 5 day) of the same compound?
A: 36.25 G/DL

Q: And the “MEAN CORPUSCULAR VOLUME” value (120 h, time 5 day)?
A: 63.6 fL

Q: And the MONOCYTE (120 h, time 5 day)?
A: 2.5%

Q: And the NEUTROPHIL (120 h, time 5 day)?
A: 11%

Q: And the “NUCLEATED RED BLOOD CELLS” value (120 h, time 5 day)?
A: 0 /100WBC

Q: What about the “PLATELET COUNT” value (120 h, time 5 day) of the same compound?
A: 1216 x10E3/uL

Q: And the “ALANINE AMINOTRANSFERASE” value (120 h, time 5 day)?
A: 39 u/L

Q: What about the ALBUMIN (120 h, time 5 day) of the same compound?
A: 4.3 G/DL

Q: What about the “ALKALINE PHOSPHATASE” value (120 h, time 5 day) of the same compound?
A: 279.5 u/L

Q: And the “ASPARTATE AMINOTRANSFERASE” value (120 h, time 5 day)?
A: 100.5 u/L

Q: And the “BLOOD UREA NITROGEN” value (120 h, time 5 day)?
A: 11.5 mg/dL

Q: What about the “CARBON DIOXIDE” value (120 h, time 5 day) of the same compound?
A: 32.5 mmol/L

Q: And the CHLORIDE (120 h, time 5 day)?
A: 101 MEQ/L

Q: And the CHOLESTEROL (120 h, time 5 day)?
A: 106 mg/dL

Q: What about the CREATININE (120 h, time 5 day) of the same compound?
A: 0.19 mg/dL

Q: And the GLUCOSE (120 h, time 5 day)?
A: 171.5 mg/dL

Q: And the “LACTATE DEHYDROGENASE” value (120 h, time 5 day)?
A: 160.5 u/L

Q: What about the LIPASE (120 h, time 5 day) of the same compound?
A: 9.5 u/L

Q: And the PHOSPHORUS (120 h, time 5 day)?
A: 13.95 mg/dL

Q: And the POTASSIUM (120 h, time 5 day)?
A: 6 MEQ/L

Q: And the SODIUM (120 h, time 5 day)?
A: 147.1 MEQ/L

Q: And the “TOTAL BILIRUBIN” value (120 h, time 5 day)?
A: 0.2 mg/dL

Q: What about the “TOTAL PROTEIN” value (120 h, time 5 day) of the same compound?
A: 6.6 G/DL

Q: What about the “URIC ACID” value (120 h, time 5 day) of the same compound?
A: 1.75 mg/dL

Q: What about the “ABSOLUTE BASOPHIL” value (time 14 day) of the same compound?
A: 0 CELLS/uL

Q: What about the “ABSOLUTE EOSINOPHIL” value (time 14 day) of the same compound?
A: 146.4 CELLS/uL

Q: What about the “ABSOLUTE LYMPHOCYTE” value (time 14 day) of the same compound?
A: 11678.6 CELLS/uL

Q: What about the “ABSOLUTE MONOCYTE” value (time 14 day) of the same compound?
A: 306.2 CELLS/uL

Q: What about the “ABSOLUTE SEGMENTED NEUTROPHIL” value (time 14 day) of the same compound?
A: 1488.8 CELLS/uL

Q: And the BASOPHIL (time 14 day)?
A: 0%

Q: And the EOSINOPHIL (time 14 day)?
A: 1.2%

Q: What about the “ERYTHROCYTE COUNT” value (time 14 day) of the same compound?
A: 6.11 x10E6/uL

Q: And the HEMATOCRIT (time 14 day)?
A: 35.9%

Q: And the HEMOGLOBIN (time 14 day)?
A: 13.2 G/DL

Q: And the “LEUKOCYTE COUNT” value (time 14 day)?
A: 13.62 x10E3/uL

Q: What about the LYMPHOCYTE (time 14 day) of the same compound?
A: 86.4%

Q: And the “MEAN CORPUSCULAR HEMOGLOBIN” value (time 14 day)?
A: 21.6 pg

Q: What about the “MEAN CORPUSCULAR HEMOGLOBIN CONCENTRATION” value (time 14 day) of the same compound?
A: 36.82 G/DL

Q: And the “MEAN CORPUSCULAR VOLUME” value (time 14 day)?
A: 58.64 fL

Q: And the MONOCYTE (time 14 day)?
A: 2.2%

Q: And the NEUTROPHIL (time 14 day)?
A: 10.2%

Q: What about the “NUCLEATED RED BLOOD CELLS” value (time 14 day) of the same compound?
A: 0 /100WBC

Q: What about the “PLATELET COUNT” value (time 14 day) of the same compound?
A: 1058.6 x10E3/uL

Q: What about the “ALANINE AMINOTRANSFERASE” value (time 14 day) of the same compound?
A: 31.2 u/L

Q: What about the ALBUMIN (time 14 day) of the same compound?
A: 4.2 G/DL

Q: And the “ALKALINE PHOSPHATASE” value (time 14 day)?
A: 238.6 u/L

Q: What about the “ASPARTATE AMINOTRANSFERASE” value (time 14 day) of the same compound?
A: 99.6 u/L

Q: What about the “BLOOD UREA NITROGEN” value (time 14 day) of the same compound?
A: 13.8 mg/dL

Q: What about the “CARBON DIOXIDE” value (time 14 day) of the same compound?
A: 30.8 mmol/L

Q: What about the CHLORIDE (time 14 day) of the same compound?
A: 102 MEQ/L

Q: What about the CHOLESTEROL (time 14 day) of the same compound?
A: 83.6 mg/dL

Q: And the CREATININE (time 14 day)?
A: 0.2 mg/dL

Q: And the GLUCOSE (time 14 day)?
A: 149.2 mg/dL

Q: And the “LACTATE DEHYDROGENASE” value (time 14 day)?
A: 133.2 u/L

Q: And the LIPASE (time 14 day)?
A: 10.4 u/L

Q: And the PHOSPHORUS (time 14 day)?
A: 9.96 mg/dL

Q: And the POTASSIUM (time 14 day)?
A: 5.75 MEQ/L

Q: And the SODIUM (time 14 day)?
A: 145.2 MEQ/L

Q: What about the “TOTAL BILIRUBIN” value (time 14 day) of the same compound?
A: 0.18 mg/dL

Q: And the “TOTAL PROTEIN” value (time 14 day)?
A: 6.18 G/DL

Q: What about the “URIC ACID” value (time 14 day) of the same compound?
A: 1 mg/dL

Source: ChEMBL document CHEMBL3885881, “DrugMatrix”
